# US20220105188A1, “TARGET PROTEIN EED DEGRADATION-INDUCING DEGRADUCER, PREPARATION METHOD THEREOF, AND PHARMACEUTICAL COMPOSITION FOR PREVENTING OR TREATING DISEASES RELATED TO EED, EZH2, OR PRC2, COMPRISING SAME AS ACTIVE INGREDIENT” (KOREA RESEARCH INSTITUTE OF CHEMICAL TECHNOLOGY, priority 2019, published 2022)
# Target: T1, EED (Homo sapiens, UniProt O75530)
# T1 construct: 2×10^5 Hela cells were injected into a 12-well plate; endogenous in cells; host or cells: HeLa
# Experiment: EED Proteolytic Activity Evaluation 2 (western blot, Hela cells)
# Assay type: cell-based
# Conditions: 1 nM, 10 nM, 100 nM and 1000 nM, 20 hours of treatment
# Procedure: [Experiment 2] EED Proteolytic Activity Evaluation 2
# In order to evaluate the EED proteolytic activity of the compound according to the present invention, an experiment was conducted as follows.
# Specifically, 2×10^5 Hela cells were injected into a 12-well plate, and after 8 hours of stabilization, each well was treated with the example compounds to have final concentrations of 1 nM, 10 nM, 100 nM, and 1000 nM. One well was treated with the volume of DMSO contained in the sample corresponding to the highest concentration in the experimental group. After 20 hours of treatment, the cells were collected and lysed using 80 μl of SDS Lysis buffer (50 mM Tris pH8.0, 1% SDS, 1 mM EDTA, 0.5 mM PMSF, and protease inhibitor cocktail) and then sonication (30 sec on/59 sec off), 5 cycles) to prepare a cell lysate, followed by protein quantification through BCA, followed by Western blot, and the results are shown in Table 3. (Maximum EED degradation rate: A: >50%, B: 25-50%, C: <25%)
# T1 sequence (O75530 whole entry): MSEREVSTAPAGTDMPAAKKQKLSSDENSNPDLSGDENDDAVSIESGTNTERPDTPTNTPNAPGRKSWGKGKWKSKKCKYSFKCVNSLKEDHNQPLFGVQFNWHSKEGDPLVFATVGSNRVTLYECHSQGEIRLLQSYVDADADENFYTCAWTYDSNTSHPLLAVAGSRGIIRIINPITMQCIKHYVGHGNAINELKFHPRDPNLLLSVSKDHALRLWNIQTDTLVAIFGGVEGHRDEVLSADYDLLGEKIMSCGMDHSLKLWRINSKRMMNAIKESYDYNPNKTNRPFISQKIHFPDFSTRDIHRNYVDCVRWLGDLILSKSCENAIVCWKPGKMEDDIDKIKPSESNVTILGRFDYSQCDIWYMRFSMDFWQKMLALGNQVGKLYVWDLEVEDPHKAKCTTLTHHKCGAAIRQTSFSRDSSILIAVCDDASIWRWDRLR
row,EED degradation rate (Maximum EED degradation rate),Structure (SMILES)
1,C (C: <25%),"O=C(CNc1ccc2c(c1)C(=O)N(C1CCC(=O)NC1=O)C2=O)NCCOCCOCCN1CCC(n2cc(-c3cnc(NCc4ccco4)n4cnnc34)cn2)CC1 (stereo not shown) [Example 129, 2-((2-(2,6-dioxopiperidin-3-yl)-1,3-dioxoisoindolin-5-yl)amino)-N-(2-(2-(2-(4-(4-(5-((furan-2-ylmethyl)amino)-[1,2,4]triazolo[4,3-c]pyrimidin-8-yl)-1H-pyrazol-1-yl)piperidin-1-yl)ethoxy)ethoxy)ethyl)acetamide]"
2,A (A: >50%),"Cc1cccc(F)c1CN1C[C@H](c2ccc(N3CCN(CCC4CCN(C(=O)CNc5cccc6c5C(=O)N(C5CCC(=O)NC5=O)C6=O)CC4)CC3)cc2)[C@@H](N(C)C)C1 (stereo partly drawn) [Example 152, 4-((2-(4-(2-(4-(4-((3S,4R)-4-(dimethylamino)-1-(2-fluoro-6-methylbenzyl)pyrrolidin-3-yl)phenyl)piperazin-1-yl)ethyl)piperidin-1-yl)-2-oxoethyl)amino)-2-(2,6-dioxopiperidin-3-yl)isoindolin-1,3-dione]"
3,C (C: <25%),"O=C1CCC(N2C(=O)c3ccc(NCC(=O)N4CCC(CN5CCC(n6cc(-c7cnc(NCc8ccco8)n8cnnc78)cn6)CC5)CC4)cc3C2=O)C(=O)N1 (stereo not shown) [Example 127, 2-(2,6-dioxopiperidin-3-yl)-5-((2-(4-((4-(4-(5-((furan-2-ylmethyl)amino)-[1,2,4]triazolo[4,3-c]pyrimidin-8-yl)-1H-pyrazol-1-yl)piperidin-1-yl)methyl)piperidin-1-yl)-2-oxoethyl)amino)isoindolin-1,3-dione]"
4,B (B: 25-50%),"Cc1cccc(F)c1CN1C[C@H](c2ccc(N3CCN(C(=O)CCC4CCN(C(=O)CNc5cccc6c5C(=O)N(C5CCC(=O)NC5=O)C6=O)CC4)CC3)cc2)[C@@H](N(C)C)C1 (stereo partly drawn) [Example 149, 4-((2-(4-(3-(4-(4-((3S,4R)-4-(dimethylamino)-1-(2-fluoro-6-methylbenzyl)pyrrolidin-3-yl)phenyl)piperazin-1-yl)-3-oxopropyl)piperidin-1-yl)-2-oxoethyl)amino)-2-(2,6-dioxopiperidin-3-yl)isoindolin-1,3-dione]"
5,B (B: 25-50%),"Cc1cccc(F)c1CN1C[C@H](c2ccc(N3CCN(CCOCCOCCOCCNC(=O)CNc4ccc5c(c4)C(=O)N(C4CCC(=O)NC4=O)C5=O)CC3)cc2)[C@@H](N(C)C)C1 (stereo partly drawn) [Example 135, N-(2-(2-(2-(2-(4-(4-((3S,4R)-4-(dimethylamino)-1-(2-fluoro-6-methylbenzyl)pyrrolidin-3-yl)phenyl)piperazin-1-yl)ethoxy)ethoxy)ethoxy)ethyl)-2-((2-(2,6-dioxopiperidin-3-yl)-1,3-dioxoisoindolin-5-yl)amino)acetamide]"
6,A (A: >50%),"Cc1cccc(F)c1CN1C[C@H](c2ccc(N3CCN(C(=O)CCC4CCN(C(=O)COc5cccc6c5C(=O)N(C5CCC(=O)NC5=O)C6=O)CC4)CC3)cc2)[C@@H](N(C)C)C1 (stereo partly drawn) [Example 148, 4-(2-(4-(3-(4-(4-((3S,4R)-4-(dimethylamino)-1-(2-fluoro-6-methylbenzyl)pyrrolidin-3-yl)phenyl)piperazin-1-yl)-3-oxopropyl)piperidin-1-yl)-2-oxoethoxy)-2-(2,6-dioxopiperidin-3-yl)isoindolin-1,3-dione]"
7,A (A: >50%),"Cc1cccc(F)c1CN1C[C@H](c2ccc(N3CCN(C(=O)CC4CCN(C(=O)COc5cccc6c5C(=O)N(C5CCC(=O)NC5=O)C6=O)CC4)CC3)cc2)[C@@H](N(C)C)C1 (stereo partly drawn) [Example 143, 4-(2-(4-(2-(4-(4-((3S,4R)-4-(dimethylamino)-1-(2-fluoro-6-methylbenzyl)pyrrolidin-3-yl)phenyl)piperazin-1-yl)-2-oxoethyl)piperidin-1-yl)-2-oxoethoxy)-2-(2,6-dioxopiperidin-3-yl)isoindolin-1,3-dione]"
8,C (C: <25%),"O=C(CNc1ccc2nnn(C3CCC(=O)NC3=O)c(=O)c2c1)NCCOCCOCCN1CCC(n2cc(-c3cnc(NCc4ccco4)n4cnnc34)cn2)CC1 (stereo not shown) [Example 130, 2-((3-(2,6-dioxopiperidin-3-yl)-4-oxo-3,4-dihydrobenzo[d][1,2,3]triazin-6-yl)amino)-N-(2-(2-(2-(4-(4-(5-((furan-2-ylmethyl)amino)-[1,2,4]triazolo[4,3-c]pyrimidin-8-yl)-1H-pyrazol-1-yl)piperidin-1-yl)ethoxy)ethoxy)ethyl)acetamide]"
9,C (C: <25%),"Cc1cccc(F)c1CN1C[C@H](c2ccc(N3CCN(C(=O)CC4CCN(c5cccc6c5C(=O)N(C5CCC(=O)NC5=O)C6=O)CC4)CC3)cc2)[C@@H](N(C)C)C1 (stereo partly drawn) [Example 142, 4-(4-(2-(4-(4-((3S,4R)-4-(dimethylamino)-1-(2-fluoro-6-methylbenzyl)pyrrolidin-3-yl)phenyl)piperazin-1-yl)-2-oxoethyl)piperidin-1-yl)-2-(2,6-dioxopiperidin-3-yl)isoindolin-1,3-dione]"
10,A (A: >50%),"Cc1cccc(F)c1CN1C[C@H](c2ccc(N3CCN(C(=O)CCC4CCN(c5ccc6c(c5)C(=O)N(C5CCC(=O)NC5=O)C6=O)CC4)CC3)cc2)[C@H](N(C)C)C1 (stereo partly drawn) [Example 133, 5-(4-(3-(4-(4-((3S,4S)-4-(dimethylamino)-1-(2-fluoro-6-methylbenzyl)pyrrolidin-3-yl)phenyl)piperazin-1-yl)-3-oxopropyl)piperidin-1-yl)-2-(2,6-dioxopiperidin-3-yl)isoindolin-1,3-dione]"
11,B (B: 25-50%),"Cc1cccc(F)c1CN1C[C@H](c2ccc(N3CCN(CC4CCN(CC5CCN(c6ccc7c(c6)C(=O)N(C6CCC(=O)NC6=O)C7=O)CC5)CC4)CC3)cc2)[C@@H](N(C)C)C1 (stereo partly drawn) [Example 134, 5-(4-((4-((4-(4-((3S,4R)-4-(dimethylamino)-1-(2-fluoro-6-methylbenzyl)pyrrolidin-3-yl)phenyl)piperazin-1-yl)methyl)piperidin-1-yl)methyl)piperidin-1-yl)-2-(2,6-dioxopiperidin-3-yl)isoindolin-1,3-dione]"
12,A (A: >50%),"Cc1cccc(F)c1CN1C[C@H](c2ccc(N3CCN(CCC4CCN(c5cccc6c5C(=O)N(C5CCC(=O)NC5=O)C6=O)CC4)CC3)cc2)[C@@H](N(C)C)C1 (stereo partly drawn) [Example 153, 4-(4-(2-(4-(4-((3S,4R)-4-(dimethylamino)-1-(2-fluoro-6-methylbenzyl)pyrrolidin-3-yl)phenyl)piperazin-1-yl)ethyl)piperidin-1-yl)-2-(2,6-dioxopiperidin-3-yl)isoindolin-1,3-dione]"
13,B (B: 25-50%),"Cc1cccc(F)c1CN1C[C@H](c2ccc(N3CCN(C(=O)CCC4CCN(c5cccc6c5C(=O)N(C5CCC(=O)NC5=O)C6=O)CC4)CC3)cc2)[C@@H](N(C)C)C1 (stereo partly drawn) [Example 141, 4-(4-(3-(4-(4-((3S,4R)-4-(dimethylamino)-1-(2-fluoro-6-methylbenzyl)pyrrolidin-3-yl)phenyl)piperazin-1-yl)-3-oxopropyl)piperidin-1-yl)-2-(2,6-dioxopiperidin-3-yl)isoindolin-1,3-dione]"
